Experimental data reported in US11485792B2, “Antibodies, uses thereof and conjugates thereof” (Polytherics Limited, priority 2016, dated 2022).
Like-named read-outs stand apart in the source and are kept apart here. Where a SMILES comes first, the peptide text is derived from it. [ ]: non-standard residue; d: D form. The star is where a group is joined. Dolaproine = CO[C@@H]([C@@H]1CCCN1)[C@@H](C)C(=O)O; Dil = CC[C@H](C)[C@H](NC)[C@@H](CC(=O)O)OC; X1 = C[C@@H](N*)[C@@H](O)c1ccccc1; NMeV = CN[C@H](C(=O)O)C(C)C

What was measured:
[1] = tested on: PC-3 cells; test: In vitro cell viability assay (CellTiter Glo), PC-3 (PSMA-negative control); type: cell-based; settings: Example 16; PSMA-negative PC-3 (negative control), 96 h
From the text: Loss of tumour cell viability following treatment with cytotoxic drugs or ADCs in vitro can be measured by growing cell lines in the presence of increasing concentrations of drugs or ADCs and quantifying the loss of proliferation or metabolic activity using CellTiter Glo® Luminescence reagent (Promega Corp. Technical Bulletin TB288; Lewis Phillips G. D, Cancer Res 2008; 68:9280-9290). The protocol describes cell seeding, drug treatment and determination of the cell viability in reference to untreated cells based on ATP synthesis, which is directly related to the number of cells present in the well.
PSMA-positive LNCaP (clone FGC) and C4-2 cells, as well as PSMA-negative PC-3 cells were detached with TrypLE and resuspended in complete medium. Cells were counted using disposable Neubauer counting chambers and cell density adjusted to 10×10^4 cells/mL for LNCaP, 2×10^4 cells/mL for C4-2 and 1×10^4 cells/mL for PC-3 respectively. […]
The cell viability assay was carried out using the Cell-Titer Glo® Luminescence reagent, as described by the manufacturer's instructions, (Promega Corp. Technical Bulletin TB288; Lewis Phillips G. D, Cancer Res 2008; 68:9280-9290). Luminescence was recorded using a plate reader (e.g. Molecular Devices Spectramax M3 plate reader), and data subsequently analysed using a four parameter non-linear regression model. […]

[2] = tested on: LNCaP cells; type: cell-based
From the text: (§1) The protocol describes cell seeding, drug treatment and determination of the cell viability in reference to untreated cells based on ATP synthesis, which is directly related to the number of cells present in the well.

[3] = tested on: C4-2 cells; test: In vitro cell viability assay (CellTiter Glo), C4-2; type: cell-based, human; settings: Example 16; PSMA-positive C4-2, 96 h
From the text: as §1

[4] = Heat stress test with SEC analysis of aggregation; type: physicochemical
Description: Antibody samples (0.5 mg/mL in PBS) were incubated at 75° C. for 30 min followed by incubation in an ice-bath for 5 min prior to being analysed for their extent of aggregation. Analysis of antibody solutions was carried out by Size Exclusion Chromatography (SEC) and by turbidity measurements.
SEC was performed using a TOSOH Bioscience TSK gel Super SW 3000 column. UV absorbance at 280 nm was monitored during an isocratic elution with a 0.2 M Potassium phosphate buffer, pH 6.8 (0.2 M potassium chloride and 15% isopropanol). The elution times and number of peaks indicate whether the sample contains aggregated, degraded or native antibody. The % area under the curve (Abs280) was used to determine the quantity of each species present in the SEC analysis.

[5] = post stress test: 0.5 mg/mL in PBS, 75° C. for 30 min, then ice-bath 5 min, SEC

Row | Compound | IC50 [1] [nM] | IC50 ([2]; Example 14, LNCaP, 96 h incubation) [nM] | IC50 [3] [nM] | Ab in aggregated form (%) [4, 5] [%] | Ab in native conformation (%) [4, 5] [%] | stability in heat stress SEC analysis (in words) ([4]; propensity to aggregate upon heating and cooling) | IC50 ([2]; Example 16, PSMA-positive LNCaP, 96 h) [nM]
1 | CC[C@H](C)[C@@H]([C@@H](CC(=O)N1CCC[C@H]1[C@H](OC)[C@@H](C)C(=O)N[C@H](C)[C@@H](O)c1ccccc1)OC)N(C)C(=O)[C@@H](NC(=O)[C@@H](NC)C(C)C)C(C)C [MMAE] (H-[NMeV]V[Dil][Dolaproine]-X1) | 8.2 | 0.81 | 0.28 |  |  |  | 
2 | AB-22: de-immunised J591 anti-PSMA antibody, SEQ ID No 25 and 26; prior art comparator |  |  |  | 100 | 0 | less stable than AB-03 | 
3 | COc1cc2cc(c1Cl)N(C)C(=O)C[C@H](OC(=O)[C@H](C)N(C)C(=O)CCCCCN)[C@]1(C)O[C@H]1[C@H](C)[C@@H]1C[C@@](O)(NC(=O)O1)[C@H](OC)/C=C/C=C(\C)C2 [AHX-DM1] | > 1000 |  | 57 |  |  |  | 341
